For twelve compounds, IC50 results are on record in paper PMC9180949, “Design, Spectroscopy, and Assessment of Cholinesterase Inhibition and Antimicrobial Activities of Novel Coumarin–Thiadiazole Hybrids” (International Journal of Molecular Sciences, 2022).

The structures appear in SMILES notation.

The target of test [1] is T1, BuChE; butyrylcholinesterase (EC 3.1.1.8) from equine serum (Equus caballus, UniProt P81908).
T1 construct: gene BCHE; commercial enzyme from equine serum, Sigma-Aldrich, EC 3.1.1.8
T1 sequence (P81908 whole entry): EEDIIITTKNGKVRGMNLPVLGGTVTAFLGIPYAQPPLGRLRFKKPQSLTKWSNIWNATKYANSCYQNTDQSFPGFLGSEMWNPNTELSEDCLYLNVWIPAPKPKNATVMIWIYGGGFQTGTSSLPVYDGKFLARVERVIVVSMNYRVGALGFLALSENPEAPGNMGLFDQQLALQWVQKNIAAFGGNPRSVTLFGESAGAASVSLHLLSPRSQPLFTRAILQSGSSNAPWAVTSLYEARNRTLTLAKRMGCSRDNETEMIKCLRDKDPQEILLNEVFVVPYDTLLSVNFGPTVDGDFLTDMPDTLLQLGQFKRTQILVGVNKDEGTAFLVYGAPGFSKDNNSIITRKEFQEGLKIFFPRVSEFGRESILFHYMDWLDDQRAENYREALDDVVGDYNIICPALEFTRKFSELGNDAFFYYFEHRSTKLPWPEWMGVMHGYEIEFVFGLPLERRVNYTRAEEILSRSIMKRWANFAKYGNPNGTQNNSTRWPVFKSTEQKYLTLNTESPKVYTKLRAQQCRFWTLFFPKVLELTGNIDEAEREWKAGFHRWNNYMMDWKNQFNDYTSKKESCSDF
Nature of the test: Ellman assay, absorbance at […] nm. It is filed as biochemical. Conditions: read-out: BuChE / IC50 (μM) ± SD *. On the technique in general: In Ellman's method for cholinesterases, released thiocholine reacts with DTNB.

Test [2] deals with T2, AChE; acetylcholinesterase (E.C. 3.1.1.7) from Electrophorus electricus (Electrophorus electricus, UniProt O42275).
T2 construct: commercial enzyme from Sigma-Aldrich, EC 3.1.1.7, purified from electric eel
T2 sequence (O42275 24-633): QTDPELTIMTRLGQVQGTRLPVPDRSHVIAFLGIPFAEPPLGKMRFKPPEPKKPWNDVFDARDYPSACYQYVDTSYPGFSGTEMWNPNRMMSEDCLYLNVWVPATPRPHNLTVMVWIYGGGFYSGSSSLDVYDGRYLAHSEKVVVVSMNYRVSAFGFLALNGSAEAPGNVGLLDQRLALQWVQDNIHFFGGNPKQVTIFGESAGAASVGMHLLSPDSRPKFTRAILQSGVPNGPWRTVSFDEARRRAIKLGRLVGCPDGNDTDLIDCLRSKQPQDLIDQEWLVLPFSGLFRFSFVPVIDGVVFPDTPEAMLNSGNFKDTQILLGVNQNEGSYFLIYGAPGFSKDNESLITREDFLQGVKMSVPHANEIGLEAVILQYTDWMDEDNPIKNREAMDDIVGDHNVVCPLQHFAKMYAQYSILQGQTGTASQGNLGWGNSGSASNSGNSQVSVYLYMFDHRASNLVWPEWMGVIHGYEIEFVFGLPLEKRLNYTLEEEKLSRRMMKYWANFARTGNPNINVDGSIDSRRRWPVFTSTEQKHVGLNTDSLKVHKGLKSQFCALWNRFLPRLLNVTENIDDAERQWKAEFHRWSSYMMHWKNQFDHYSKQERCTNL
Nature of the test: Ellman assay, absorbance at […] nm. It is filed as biochemical. To be noted: read-out: AChE / IC50 (μM) ± SD *.

`CCN(CC)c1ccc2cc(-c3nnc(N)s3)c(=O)oc2c1` [compound 1, coumarin–thiadiazole hybrid 1]: the IC50 in test [1] came to 0.191 ± 0.024 µM; in test [2] it was 0.184 ± 0.011 µM.
For `Nc1nnc(-c2cc3cc(Cl)ccc3oc2=O)s1` [compound 4, coumarin–thiadiazole hybrid 4], in that order: 0.205 ± 0.014 µM and 0.211 ± 0.01 µM.
For `Nc1nnc(-c2cc3ccccc3oc2=O)s1` [compound 8, coumarin–thiadiazole hybrid 8], in that order: 0.392 ± 0.024 µM and 0.199 ± 0.003 µM.
As to `COc1cccc2cc(-c3nnc(N)s3)c(=O)oc12` [compound 2, coumarin–thiadiazole hybrid 2], the results for the IC50 in test [1] and in test [2] were 0.198 ± 0.039 µM and 0.213 ± 0.009 µM, respectively.
The corresponding values for `Nc1nnc(-c2cc3ccc(O)c(O)c3oc2=O)s1` [compound 12, coumarin–thiadiazole hybrid 12] are 0.264 ± 0.017 µM and 0.187 ± 0.015 µM.
The corresponding values for `COc1cc([N+](=O)[O-])cc2cc(-c3nnc(N)s3)c(=O)oc12` [compound 7, coumarin–thiadiazole hybrid 7] are 0.494 ± 0.024 µM and 0.159 ± 0.015 µM.
As to `Nc1nnc(-c2cc3cc([N+](=O)[O-])ccc3oc2=O)s1` [compound 6, coumarin–thiadiazole hybrid 6], the IC50 in test [1] worked out at 0.166 ± 0.022 µM; in test [2] it was 0.198 ± 0.016 µM.
Turning to `Nc1nnc(-c2cc3cc(O)ccc3oc2=O)s1` [compound 9, coumarin–thiadiazole hybrid 9], the figures for the IC50 in test [1] and in test [2] were 0.235 ± 0.034 µM and 0.196 ± 0.022 µM, respectively.
As for `Nc1nnc(-c2cc3cc(Br)ccc3oc2=O)s1` [compound 5, coumarin–thiadiazole hybrid 5], the IC50 came to 0.261 ± 0.015 µM in test [1] and 0.183 ± 0.018 µM in test [2].
The corresponding values for `Nc1nnc(-c2cc3cccc(O)c3oc2=O)s1` [compound 11, coumarin–thiadiazole hybrid 11] are 0.202 ± 0.03 µM and 0.165 ± 0.003 µM.
For `CCOc1cccc2cc(-c3nnc(N)s3)c(=O)oc12` [compound 3, coumarin–thiadiazole hybrid 3], in that order: 0.295 ± 0.024 µM and 0.152 ± 0.003 µM.
The corresponding values for `Nc1nnc(-c2cc3ccc(O)cc3oc2=O)s1` [compound 10, coumarin–thiadiazole hybrid 10] are 0.38 ± 0.01 µM and 0.2 ± 0.012 µM.
